Patent US20220105082A1, “NEW FORMULATIONS CONTAINING LEUKOTRIENE RECEPTOR ANTAGONISTS” (JIANGYIN MUCOCARE PHARMACEUTICAL CO., LTD., priority 2019, published 2022)

How the values were obtained:
SD rats = assay: Idiopathic pulmonary fibrosis (IPF) model, bleomycin-induced; assay type: in vivo, rat; conditions: pirfenidone 120 mg/kg intragastric, 28 days
Method: 50 Adult SD rats (Zhejiang Experimental Animal Center (Animal Production License Number: SCXK (Zhejiang, Chi-00, half male and half female were kept at 21-26° C. with 40-70% relative humidity, with free access to food and water.
After 7 days of adaptive feeding, the rats were randomly divided into 5 groups: sham operation group, idiopathic pulmonary fibrosis model group, Monte gavage administrating group, Monte inhalation administrating group and pirfenidone control group.
The rats were anaesthetized and placed on an operating table in the supine position, exposing the trachea. 150 μL of Bleomycin (Bleomycin Hydrochloride for Injection, Zhejiang Hisun Pharmaceutical Co. Ltd, China) in saline solution was injected into the trachea through the gap between the tracheal cartilage at 5 mg/kg. (The sham-operation group were given an equal volume of normal saline.)
The rats were lifted vertically after administration and were rotated to allow the drug to evenly disperse. Once the rats recovered, after approximately 7 days, they were administrated different drugs according to Table 1 below. […]

BALB/c mice = assay: Mouse ear swelling model (xylene induced); assay type: in vivo; conditions: cream 5 mg/g, 500 μg/mouse on right ear, 40 minutes
Method: 35 healthy male BALB/c mice of 6-8 weeks of age and average body weight of 18-25 g supplied by Changzhou Cvens Experimental Animal Co. Ltd. were housed and cared for about for 1 week prior to the experiment. The housing temperature was 25-27° C. with 74% humidity, with alternating 12 hour periods of light and darkness, and free access to food and water. The mice were randomly divided into 4 groups as described in Table 1 below, with 5 mice in each group.
The left ear of each mouse was used as autologous control. 20 μL of xylene (Shanghai Aladdin Bio-Chem Technology Co., Ltd., Shanghai, China) was applied to the right ear of each mouse, both inside and outside. The ear started to swell in about 4 minutes. Then, different amounts of each study treatments or vehicles (as described in Table 1 below) were applied to the right ears in each group. The mice were put back into their cages.
The mice were sacrificed by cervical dislocation after 40 minutes. The left and right ears were cut off. A skin pouch (Electron Microscopy Sciences, Hatfield, USA) with diameter of 8 mm was used to take a piece of ear from the same site of both ears. The weights were recorded the weights and the swelling rates were calculated as follows:
Swelling rate=(right ear weight−left ear weight)/left ear weight×100%

## Cc1ccc(=O)n(-c2ccccc2)c1 [Postitive Control, pirfenidone]
SD rats; lung
  HYP: 755.49 ± 66.64 μg/g wet weight
SD rats; tissue
  IL-10: 43.52 ± 4.30 pg/mg protein

## COc1cc(C(=O)NS(=O)(=O)c2ccccc2C)ccc1Cc1cn(C)c2ccc(NC(=O)OC3CCCC3)cc12 [zafirlukast]
BALB/c mice
  xylene induced swelling: significantly reduce
